In US9518000B2, “Bicyclo [2.2.1] acid GPR120 modulators” (BRISTOL-MYERS SQUIBB COMPANY, priority 2013, dated 2016):

These compounds were tested against human GPR120 (Homo sapiens (Human), UniProt Q5NUL3) (assay: GPR120 pERK AlphaScreen SureFire Assay (human GPR120 pERK assay)). Details: CHOA12 or CHO-K1 cells stably transfected with the short form of human GPR120 receptor; phosphorylated ERK; read-out: EC50 values measured in the human GPR120 pERK assay.
Type: cell-based
Source text: GPR120 activity was monitored by measuring phosphorylation of ERK (pERK), since G protein receptors are known to activate the ERK signaling cascade either directly and/or through recruitment of arrestin that serves as a scaffold for downstream signaling events.
GPR120 pERK AlphaScreen SureFire Assay
The human and mouse GPR120-mediated intracellular phosphorylated ERK assays were established using CHOA12 cells stably transfected with the short form of human or mouse GPR120 receptor. Cells were cultured in growth medium consisting of F-12 media (Invitrogen Cat. #11765) with 5% Charcoal/Dextran FBS (Invitrogen Cat. #12676-029), 500 μg/mL GENETICIN® (Life Technologies Cat. #10131-027) and 250 μg/mL Zeocin (Invitrogen Cat. #R250-01). Cells were cryo preserved at a concentration of 2×10^7 cells/mL, in 90% Charcoal/Dextran FBS and 10% DMSO, and frozen in liquid nitrogen at a low passage number.
For the pERK assay, 2×10^7 cells/mL cryopreserved human and mouse cells were thawed rapidly in a 37° C. water bath and added to a T-225 flask containing 50 mL growth medium. The flasks were placed in a tissue culture incubator overnight (37° C., 5% CO2). The next day, cells were harvested with trypsin (Gibco Cat. #25300-054), resuspended in serum-containing growth medium and counted using a Cellometer and volume adjusted to a concentration of 0.6×10^6 cells/mL. Cells were plated into 384-well clear bottom tissue culture plates (BD Cat. #353962) at 50 μL/well, for a density of 30,000 cells/well using a MULTIDROP® and incubated for 16-18 hours (overnight) at 37° C. with 5% CO2. The next day, cells were serum starved in 30 μL of F-12 media without any serum or antibiotics for 2 hours at 37° C.
Test compounds were 3-fold, 11-point serially diluted in DMSO in a REMP assay plate (Matrix Cat. #4307) by Tecan and 5 μL was transferred into an ECHO source plate (LabCyte Cat. #LC-0200). Cells were then stimulated with 50 nL of compound dilutions using ECHO liquid handler for 7 minutes at 37° C. Compounds ranged from final assay concentrations of 33.33 μM to 0.56 nM.
The media was then dumped and cells lysed with 20 μL of 1× Lysis buffer from the AlphaScreen SureFire Phospho-ERK 1/2 Kit (Perkin Elmer Cat. #6760617M). The lysis buffer was diluted 5-fold with water before use. The plate was agitated on a shaker for 10 minutes after which 2 μL was transferred into a 384-well white proxiplate (Perkin Elmer Cat. #6008289). The SureFire assay reagent mix was prepared by mixing 60 parts Reaction Buffer, 10 parts Activation Buffer, 1 part Donor Beads, 1 part Acceptor Beads (Perkin Elmer Cat. #TGRES10K). 3.5 μL/well of this reagent mix was manually added to the proxiplate with a multichannel pipettor. Plates were spun down at 1000 rpm for 2 minutes, followed by light-protected incubation at room temperature for 2 hours. The plates were read on the Alpha-technology compatible Envision multilabel plate reader using AlphaScreen protocol according to manufacturer's specifications. The agonist effect of compounds was expressed as 100×(average sample-average blank)/(average total−average blank) where sample is the luminescence activity in the presence of test compound, blank is equal to the luminescence activity in the presence of DMSO control and the total is signal induced by 50 μM linolenic acid as reference compound. Activation data for the test compound over a range of concentrations was plotted as percentage activation of the test compound (100%=maximum response). After correcting for background, EC50 values were determined. The EC50 is defined as the concentration of test compound which produces 50% of the maximal response and was quantified using the 4 parameter logistic equation to fit the data.
The human and mouse GPR120-mediated intracellular phosphorylated ERK assays were also established using CHO-K1 cells stably transfected with the short form of human or mouse GPR120 receptor. […]

human GPR120, sequence (Q5NUL3 whole entry): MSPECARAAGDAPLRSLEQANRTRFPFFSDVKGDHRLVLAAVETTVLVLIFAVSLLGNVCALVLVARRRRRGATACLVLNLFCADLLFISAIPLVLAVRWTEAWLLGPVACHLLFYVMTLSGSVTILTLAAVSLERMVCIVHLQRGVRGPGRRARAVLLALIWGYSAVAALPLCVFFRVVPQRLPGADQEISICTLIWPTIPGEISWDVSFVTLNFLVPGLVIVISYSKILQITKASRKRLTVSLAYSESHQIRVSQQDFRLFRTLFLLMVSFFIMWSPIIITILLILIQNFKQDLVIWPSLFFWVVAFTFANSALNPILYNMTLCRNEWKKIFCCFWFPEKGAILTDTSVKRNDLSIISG

| Structure (SMILES) | EC50 [µM] |
| --- | --- |
| O=C(O)CCCC12CCC(OCc3c(F)ccc(F)c3F)(CC1)C2 [Example 47, 4-(4-(2,3,6-trifluorobenzyl-oxy)bicyclo [2.2.1]heptan-1-yl)butanoic acid] | 7.81 |
| O=C(O)CCCC12CCC(OCc3cc([N+](=O)[O-])ccc3Cl)(CC1)C2 [Example 51, 4-(4-(2-chloro-5-nitrobenzyloxy)bicyclo[2.2.1]heptan-1-yl) butanoic acid] | 2.39 |
| O=C(O)CCCC12CCC(OCc3cccc(F)c3F)(CC1)C2 [Example 53, 4-(4-(2,3-difluorobenzyloxy)bicyclo[2.2.1]heptan-1-yl) butanoic acid] | 6.12 |
| O=C(O)CCCC12CCC(OCc3ccsc3Br)(CC1)C2 [Example 54, 4-(4-((2-bromo-thiophen-3-yl)methoxy)bicyclo [2.2.1]heptan-1-yl)butanoic acid] | 1.69 |
| O=C(O)CCCC12CCC(OCc3c(F)ccc(F)c3Cl)(CC1)C2 [Example 56, 4-(4-(2-chloro-3,6-difluorobenzyl-oxy)bicyclo [2.2.1]heptan-1-yl)butanoic acid] | 1.88 |
| O=C(O)CCCC12CCC(OCc3ccc(Oc4ccccc4)cc3)(CC1)C2 [Example 58, 4-(4-(4-phenoxy-benzyloxy)bicyclo[2.2.1]heptan-1-yl) butanoic acid] | 1.72 |
| COc1ccc(Br)cc1COC12CCC(CCCC(=O)O)(CC1)C2 [Example 60, 4-(4-(5-bromo-2-methoxybenzyl-oxy)bicyclo [2.2.1]heptan-1-yl)butanoic acid] | 4.15 |
| O=C(O)CCCC12CCC(OCc3cc(C(F)(F)F)ccc3Cl)(CC1)C2 [Example 63, 4-(4-(2-chloro-5-(trifluoromethyl)benzyloxy)bicyclo[2.2.1]heptan-1-yl) butanoic acid] | 2.47 |
| O=C(O)CCCC12CCC(OCc3ccccc3C(F)(F)F)(CC1)C2 [Example 64, 4-(4-(2-(trifluoro-methyl)benzyloxy)bicyclo[2.2.1]heptan-1-yl) butanoic acid] | 1.51 |
| COC(=O)CCCC12CCC(OCc3cc(F)ccc3-c3ccc(C)cc3)(CC1)C2 [Example 66, methyl 4-(4-((4-fluoro-4′-methyl-[1,1′-biphenyl]-2-yl)methoxy)bicyclo [2.2.1]heptan-1-yl)butanoic] | 0.37 |
| CSc1nccc(COC23CCC(CCCC(=O)O)(CC2)C3)n1 [Example 67, 4-(4-((2-(methylthio)pyrimidin-4-yl)methoxy)bicyclo[2.2.1]heptan-1-yl) butanoic acid] | 4.96 |
| CC1(C)Cc2cc(Cl)cc(COC34CCC(CCCO)(CC3)C4)c2O1 [Example 70, 3-(4-((5-Chloro-2,2-dimethyl-2,3-dihydrobenzofuran-7-yl)methoxy)bicyclo[2.2.1]heptan-1-yl)propan-1-ol] | 7.25 |
| CC1(C)Cc2cc(Cl)cc(COC34CCC(CCC(=O)O)(CC3)C4)c2O1 [Example 71, 3-(4-((5-Chloro-2,2-dimethyl-2,3-dihydrobenzofuran-7-yl)methoxy)bicyclo[2.2.1]heptan-1-yl)propanoic acid] | 6.64 |
| O=C(O)COCC12CCC(OCc3cccc(Oc4ccccc4)c3)(CC1)C2 [Example 74, 2-((4-(3-phenoxybenzyloxy)bicyclo[2.2.1]heptan-1-yl)methoxy)acetic acid] | 1.43 |
| O=C(O)COCC12CCC(OCc3cc(F)cc(Oc4ccc(F)cc4)c3)(CC1)C2 [Example 75, 2-((4-(3-fluoro-5-(4-fluorophenoxy)benzyloxy)bicyclo[2.2.1]heptan-1-yl)methoxy)acetic acid] | 1.85 |
| CC(OC12CCC(COCC(=O)O)(CC1)C2)c1cc(F)cc(Oc2ccc(F)cc2)c1 (centres unmarked) [Example 76, 2-((4-(1-(3-fluoro-5-(4-fluorophenoxy)phenyl)ethoxy)bicyclo[2.2.1]heptan-1-yl)methoxy)acetic acid] | 3.04 |
| CC1(C)Cc2cc(Cl)cc(COC34CCC(COCC(=O)O)(CC3)C4)c2O1 [Example 77, 2-((4-((5-chloro-2,2-dimethyl-2,3-dihydrobenzofuran-7-yl)methoxy)bicyclo[2.2.1]heptan-1-yl)methoxy)acetic acid] | 4.53 |

Now from value to compound:

| EC50 [µM] | Structure (SMILES) |
| --- | --- |
| 0.71 | O=C(O)CCCC12CCC(OCc3cccc(Cl)c3F)(CC1)C2 [Example 45, 4-(4-(3-chloro-2-fluorobenzyl-oxy)bicyclo [2.2.1]heptan-1-yl)butanoic acid] |
| 0.29 | O=C(O)CCCC12CCC(OCc3cccc(C(F)(F)F)c3F)(CC1)C2 [Example 46, 4-(4-(2-fluoro-3-(trifluoromethyl)benzyloxy)bicyclo[2.2.1]heptan-1-yl) butanoic acid] |
| 0.32 | O=C(O)CCCC12CCC(OCc3ccccc3-c3ccccc3)(CC1)C2 [Example 48, 4-(4-(biphenyl-2-ylmethoxy)bicyclo[2.2.1]heptan-1-yl) butanoic acid] |
| 0.66 | O=C(O)CCCC12CCC(OCc3ccccc3SC(F)(F)F)(CC1)C2 [Example 49, 4-(4-(2-(trifluoro-methylthio)benzyloxy)bicyclo [2.2.1]heptan-1-yl)butanoic acid] |
| 0.54 | O=C(O)CCCC12CCC(OCc3cccc(SC(F)(F)F)c3)(CC1)C2 [Example 50, 4-(4-(3-(trifluoro-methylthio)benzyloxy)bicyclo[2.2.1]heptan-1-yl) butanoic acid] |
| 0.69 | O=C(O)CCCC12CCC(OCc3cc(Cl)ccc3F)(CC1)C2 [Example 52, 4-(4-(5-chloro-2-fluorobenzyl-oxy)bicyclo [2.2.1]heptan-1-yl)butanoic acid] |
| 0.17 | O=C(O)CCCC12CCC(OCc3cccc(C(F)(F)F)c3Cl)(CC1)C2 [Example 55, 4-(4-(2-chloro-3-(trifluoromethyl)benzyloxy) [2.2.1]heptan-1-yl)butanoic acid] |
| 0.77 | O=C(O)CCCC12CCC(OCc3cccc(-c4ccccc4)c3)(CC1)C2 [Example 57, 4-(4-(biphenyl-3-ylmethoxy)bicyclo[2.2.1]heptan-1-yl) butanoic acid] |
| 0.61 | O=C(O)CCCC12CCC(OCc3c(Cl)ccc(Cl)c3Cl)(CC1)C2 [Example 59, 4-(4-(2,3,6-trichlorobenzyl-oxy)bicyclo [2.2.1]heptan-1-yl)butanoic acid] |
| 0.75 | O=C(O)CCCC12CCC(OCc3cccc(-c4cccs4)c3)(CC1)C2 [Example 61, 4-(4-(3-(thiophen-2-yl)benzyloxy)bicyclo[2.2.1]heptan-1-yl) butanoic acid] |
| 0.81 | Cc1ccc(Br)cc1COC12CCC(CCCC(=O)O)(CC1)C2 [Example 62, 4-(4-(5-bromo-2-methylbenzyl-oxy)bicyclo [2.2.1]heptan-1-yl)butanoic acid] |
| 1.27 | O=C(O)CCCC12CCC(OCc3cccc(C(F)(F)F)c3)(CC1)C2 [Example 65, 4-(4-(3-(trifluoro-methyl)benzyloxy)bicyclo[2.2.1]heptan-1-yl) butanoic acid] |
| 1 | CC(CCC12CCC(OCc3ccccc3Oc3ccccc3)(CC1)C2)C(=O)O (centres unmarked) [Example 68, 2-Methyl-4-(4-(2-phenoxybenzyloxy)bicyclo[2.2.1]heptan-1-yl)butanoic acid] |
| 1.12 | O=C(O)COCC12CCC(OCc3ccccc3Oc3ccccc3)(CC1)C2 [Example 72, 2-((4-(2-Phenoxybenzyloxy)bicyclo[2.2.1]heptan-1-yl)methoxy)acetic acid] |
| 0.94 | O=C(O)COCC12CCC(OCc3cc(Cl)cc(OC(F)(F)F)c3)(CC1)C2 [Example 78, 2-((4-((3-chloro-5-(trifluoromethoxy)benzyl)oxy)bicyclo[2.2.1]heptan-1-yl)methoxy)acetic acid] |
